Tests used:
[1] = test system: anti-etofenprox antibody II (E-antibody II); assay: Indirect competitive ELISA employing E-antibody II; format: binding, rabbit; details: inhibition rate relative to etofenprox at its IC50 concentration (=100%); antibody 1/80,000, 20% methanol
Method: The ELISA method employing E-antibody II, on the other hand, will be described next. As the antigen, a 0.01 μg/ml solution of the conjugate between the haptenic compound (II) and RSA was employed. An E-antibody II solution, which had been diluted 64,000-fold, and a methanol solution of etofenprox were mixed at a ratio of 4:1 to give an antibody concentration and methanol concentration, each in the resulting solution, of 1/80,000 and 20%, respectively. The resulting solution was then reacted. As a second antibody, antirabbit IgG goat IgG in the form of a 5000-fold dilution was employed. In a similar manner to the above ELISA method, etofenprox concentrations ranging from 3 ng/ml to 1,000 ng/ml were successfully measured.
In addition, solutions of each of various pyrethroid compounds in methanol (concentration: 5-50,000 ng/ml) were each mixed with an E antibody II solution, which had been diluted 64,000-fold, at a ratio of 1:4, followed by incubation at 25° C. for one hour. The reaction mixture was treated as described in Example 8 and its cross reactivity was obtained.
The inhibition rates of other pyrethroid compounds when the inhibition rate of ethophenprox at IC50 concentration is designated as 100% are also shown as cross reactivity in Table 1.

[2] = test system: anti-etofenprox antibody I (E-antibody I); assay: Indirect competitive ELISA employing E-antibody I; format: binding, rabbit; details: inhibition rate relative to etofenprox at its IC50 concentration (=100%); antibody 1/40,000, 50% methanol
Method: 1. To a 96-well polystyrene microtiter plate, a solution of the conjugate between rabbit serum albumin (RSA) and the haptenic compound (I) dissolved in a coating buffer solution [10 mM phosphate buffer solution (pH 7.5), 100 mM NaC1] to give […] was added as an antigen at a ratio of 0.1 ml/well, followed by incubation at 4° C. overnight, whereby the antigen was adsorbed on the plate. After the excess solution was drained, a 3% solution of skim milk was added to the wells at a ratio of 0.3 ml/well, followed by incubation at 25° C. for one hour. The plate was washed thrice with a washing buffer [10 mM phosphate buffer solution (pH 7.2), 0.8% NaC1, 0.02% KCl, 0.02% "Tween 20"], whereby an antigen-coated plate was obtained.
2. The E-antibody I was diluted 20,000-fold with a diluting buffer [10 mM phosphate buffer solution (pH 7.5), 0.8% NaCl, 0.02% KCl] and was then mixed with a solution of etofenprox in methanol at a ratio of 1:1 to give an antibody concentration and a methanol concentration, both in the resulting solution, of 1/40,000 and 50%, respectively. The solution was reacted by incubation at 25° C. for one hour. The reaction mixture was added to the antigen-coated plate at a rate of 0.1 ml/well, followed by the reaction at 25° C. for one hour. The plate was then washed thrice with the washing buffer.
3. A conjugate between horseradish peroxidase and anti-rabbit IgG goat IgG (a second antibody) was diluted 10,000-fold with the washing buffer. The diluted conjugate was added to the antigen-coated plate at a rate of 0.1 ml/well, followed by incubation at 25° C. for one hour. The plate was washed thrice with the washing buffer.
4. To the antigen-coated plate, a chromogenic solution of o-phenylenediamine [0.2% (v/v) o-phenylenediamine and 100 mM phosphate-citrate buffer solution [pH 5.0, 0.003% (v/v) hydrogen peroxide] was added in an amount of 0.2 ml/well, followed by incubation at 25° C. for 10 minutes. The enzymatic reaction was then terminated by adding 4N sulfuric acid to the plate by at a rate of 0.05 ml/well. The absorbances at 492 nm and 630 nm were thereafter measured, respectively. According to this method, etofenprox concentrations ranging from 10 ng/ml to 10,000 ng/ml were successfully measured.
A solution of each of various pyrethroid compounds in methanol (having a concentration of 2-20,000 ng/ml) was mixed with a solution of the E antibody I, which had been diluted 20,000-fold with a diluting buffer, at a ratio of 1:1, followed by incubation at 25° C. for one hour.
Using the reaction mixture, measurement was conducted by the ELISA method as described in Example 8. The absorbance of the reaction mixture which had been obtained without addition of any pyrethroid compound is designated as 100%. The concentration of etophenprox. which inhibited 50% of the absorbance is designated as IC50 concentration. The inhibition rates of other pyrethroid compounds when the inhibition rate of ethophenprox at IC50 concentration is designated as 100% are shown as cross reactivity in Table 1.

Row | Compound | Cross reactivity (%) E antibody II [1] | Cross reactivity (%) E antibody I [2]
1 | C=CCC1=C(C)C(OC(=O)C2C(C=C(C)C)C2(C)C)CC1=O (stereo not shown) [Allethrin, allethrin] | 54% | 46%
2 | Cc1c(COC(=O)C2C(C=C(Cl)C(F)(F)F)C2(C)C)cccc1-c1ccccc1 (stereo not shown) [Biphenthrin, biphenthrin] | 81% | 86%
3 | CCOc1ccc(C2(C(=O)OC(C#N)c3cccc(Oc4ccccc4)c3)CC2(Cl)Cl)cc1 (stereo not shown) [Cycloprothrin, cycloprothrin] | 54% | 103%
4 | CC1(C)C(/C=C(\Cl)C(F)(F)F)C1C(=O)OC(C#N)c1cccc(Oc2ccccc2)c1 (stereo not shown) [Cyhalothrin, cyhalothrin] | 36% | 92%
5 | CC1(C)C(C(=O)OC(C#N)c2cccc(Oc3ccccc3)c2)C1(C)C (stereo not shown) [Fenpropathrin, fenpropathrin] | 48% | 136%
6 | CC(C)C(C(=O)OC(C#N)c1cccc(Oc2ccccc2)c1)c1ccc(Cl)cc1 (stereo not shown) [Fenvarerate, fenvarerate] | 50% | 47%
7 | CC(C)[C@H](C(=O)OC(C#N)c1cccc(Oc2ccccc2)c1)c1ccc(OC(F)F)cc1 (stereo partly shown) [Flucythrinate, flucythrinate] | 60% | 126%
8 | CCOc1ccc(C(COCc2cccc(Oc3ccc(Cl)cc3)c2)C(F)(F)F)cc1 (stereo not shown) [Flufenprox] | 74% | 108%
9 | CC(C)[C@H](Nc1ccc(C(F)(F)F)cc1Cl)C(=O)OC(C#N)c1cccc(Oc2ccccc2)c1 (stereo partly shown) [Fluvalinate, fluvalinate] | 23% | 70%
10 | CC(C)(COCc1cccc(Oc2ccccc2)c1)c1ccc(OC(F)(F)Br)cc1 [Halfenprox, halfenprox] | 75% | 85%
11 | CC1(C)[C@H](C(=O)OCc2coc(Cc3ccccc3)c2)[C@@H]1/C=C1\CCSC1=O [Kadethrin, kadethrin] | 164% | 62%
12 | CCOc1ccc(C(C)(C)CCCc2cccc(Oc3ccccc3)c2)cc1 [MTI-790, 1-(3-phenoxyphenyl)-4-(4-ethoxyphenyl)-4-methylpentane] | 37% | 23%
13 | CCOc1ccc(C(C)(C)CCCc2ccc(F)c(Oc3ccccc3)c2)cc1 [MTI-800, 1-(3-phenoxy-4-fluorophenyl)-4-(4-ethoxyphenyl)-4-methylpentane] | 34% | 54%
14 | CC(C)=CC1C(C(=O)OCc2coc(Cc3ccccc3)c2)C1(C)C (stereo not shown) [Resmethrin, resmethrin] | 85% | 74%
15 | CCOc1ccc([Si](C)(C)OCc2cccc(Oc3ccccc3)c2)cc1 [SSI-116, dimethyl-(4-ethoxyphenyl)-(3-phenoxybenzyloxy)silane] | 103% | 70%
16 | CCOc1ccc([Si](C)(C)CCCc2ccc(F)c(Oc3ccccc3)c2)cc1 [Silafluofen, silafluofen] | 32% | 57%
17 | CC1(C)[C@H](C(=O)O[C@H](C#N)c2cccc(Oc3ccccc3)c2)[C@@H]1C(Br)C(Br)(Br)Br (stereo partly shown) [Tralomethrin, tralomethrin] | 67% | 116%

Reference: patent publication US5608104A, “Immunological detection method of pyrethroid compound, haptenic compound, intermediate for the haptenic compound, immunogen and antibody” (Mitsui Toatsu Chemicals, Inc., priority 1993, dated 1997)
